Test results from patent publication US7265152B2 (ViroPharma Incorporated, priority 2002, dated 2007).
pEC50, pIC50: −log10 of the molar value. Where two headings read alike, the source gives them in different places.

Tests used:
[1] = system: HCV replicon (BB7 sequence) in Huh-7-Clone A cells; test: HCV replicon assay: ELISA of NS5A protein in replicon-containing cells (Inhibition of Viral RNA Replication); format: cell-based; details: ranges of EC50 in HCV replicon assay, read-out: Replicon
Outline: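 Huh-7-Clone A cells carrying subgenomic BB7 HCV replicon (G418-selectable) incubated 72 h with compound. NS5A protein quantified by cell ELISA: glutaraldehyde fixation, anti-NS5A monoclonal plus HRP secondary, TMB read at OD 650 nm. EC50 derived from 8-point serial dilution dose curve.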

HCV NS5B = molecular target: T1, HCV NS5B (Hepatitis C virus genotype 1b, UniProt Q9WMX2); test: Inhibition of viral RNA-dependent RNA polymerase (RdRp), in vitro biochemical assay; set-up: species or system HCV genotype 1b virus (BB7); details: HCV NS5B RdRp, BB7 genotype 1b; read-out: HCV pol-BB7 IC50
T1 construct: fusion protein, of which the carboxyl terminal 21 amino acids were removed to enhance its solubility; His tag (GSHHHHHH); made in house; host or cells: E. coli
Outline: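 Purified recombinant NS5B from a genotype 1b consensus (BB7), His-tagged, E. coli-expressed, with the C-terminal 21 residues deleted. Inhibition of RdRp activity in vitro was measured, and IC50 is the concentration giving 50% inhibition.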

Row | Structure (SMILES) | pEC50 ([1]; Hepatitis C virus) | pIC50 (HCV NS5B) | pEC50 [1]
1 | CNC(=O)c1c(-c2ccc(N3CCOCC3)cc2)oc2ccc(OC)cc12 [Example 93, 5-Methoxy-2-(4-morpholin-4-yl-phenyl)-benzofuran-3-carboxylic acid methylamide] | < 4.52 | 5.30 to 6.30 | –
2 | CNC(=O)c1c(-c2ccccc2)oc2cc(OC)c(OC)cc12 [Example 94, 5,6-Dimethoxy-2-phenyl-benzofuran-3-carboxylic acid methylamide] | > 6.00 | ≥ 6.30 | –
3 | CNC(=O)c1c(-c2ccc(N3CCCC3)cc2)oc2ccc(OC(C)C)cc12 [Example 95, 5-Isopropoxy-2-(4-pyrrolidin-1-yl-phenyl)-benzofuran-3-carboxylic acid methylamide] | > 4.52 | 4.52 to 5.30 | –
4 | CNC(=O)c1c(-c2ccncc2)oc2ccc(F)cc12 [Example 96, 5-Fluoro-2-pyridin-4-yl-benzofuran-3-carboxylic acid methylamide] | < 4.52 | 5.30 to 6.30 | –
5 | CNC(=O)c1c(-c2ccc(F)cc2)oc2cc(C)c(OC(C)C(=O)O)cc12 (centres unmarked) [Example 97, 2-[2-(4-Fluoro-phenyl)-6-methyl-3-methylcarbamoyl-benzofuran-5-yloxy]-propionic acid] | < 4.52 | 4.52 to 5.30 | –
6 | CNC(=O)c1c(-c2ccc(F)cc2)oc2cc(NC(C)=O)c(OC(C)C)cc12 [Example 98, 6-Acetylamino-2-(4-fluoro-phenyl)-5-isopropoxy-benzofuran-3-carboxylic acid methylamide] | > 5.00 | ≥ 6.30 | –
7 | CNC(=O)c1c(-c2ccc(N)cc2)oc2ccc(OC(C)C)cc12 [Example 99, 2-(4-Amino-phenyl)-5-isopropoxy-benzofuran-3-carboxylic acid methylamide] | > 4.52 | 5.30 to 6.30 | –
8 | CNC(=O)c1c(-c2ccc(F)cc2)oc2cc(NCCN3CCOCC3)c(OC(C)C)cc12 [Example 100, 2-(4-Fluoro-phenyl)-5-isopropoxy-6-(2-morpholin-4-yl-ethylamino)-benzofuran-3-carboxylic acid methylamide] | > 4.52 | 5.30 to 6.30 | –
9 | CNC(=O)c1c(-c2ccc(F)cc2)oc2cc(N3CCCCC3)c(OC(C)C)cc12 [Example 101, 2-(4-Fluoro-phenyl)-5-isopropoxy-6-piperidin-1-yl-benzofuran-3-carboxylic acid methylamide] | > 6.00 | ≥ 6.30 | –
10 | CNC(=O)c1c(-c2ccc(F)cc2)oc2cc(OC)c(OC)cc12 [Example 102, 2-(4-Fluoro-phenyl)-5,6-dimethoxy-benzofuran-3-carboxylic acid methylamide] | > 6.00 | ≥ 6.30 | –
11 | CNC(=O)c1c(-c2ccc(F)cc2)oc2cc(N3CCOCC3)c(OC)cc12 [Example 103, 2-(4-Fluoro-phenyl)-5-methoxy-6-morpholin-4-yl-benzofuran-3-carboxylic acid methylamide] | > 6.00 | ≥ 6.30 | –
12 | CNC(=O)c1c(-c2ccc(F)c(O)c2)oc2ccc(OC(C)C)cc12 [Example 105, 2-(4-Fluoro-3-hydroxy-phenyl)-5-isopropoxy-benzofuran-3-carboxylic acid methylamide] | > 4.52 | 4.52 to 5.30 | –
13 | CNC(=O)c1c(-c2ccc(C#N)cc2)oc2ccc(OC(C)C)cc12 [Example 106, 2-(4-Cyano-phenyl)-5-isopropoxy-benzofuran-3-carboxylic acid methylamide] | > 4.52 | 5.30 to 6.30 | –
14 | CNC(=O)c1c(-c2ccncc2)oc2ccc(OC)cc12 [Example 107, 5-Methoxy-2-pyridin-4-yl-benzofuran-3-carboxylic acid methylamide] | > 4.00 | 5.30 to 6.30 | –
15 | CNC(=O)c1c(-c2ccc(F)cc2)oc2cc(N3CCC(S(C)(=O)=O)C3)c(OC(C)C)cc12 (centres unmarked) [Example 108, 2-(4-Fluoro-phenyl)-5-isopropoxy-6-(3-methanesulfonyl-pyrrolidin-1-yl)-benzofuran-3-carboxylic acid methylamide] | > 6.00 | ≥ 6.30 | –
16 | CNC(=O)c1c(-c2ccc(F)cc2)oc2cc(N3CCC3)c(OC(C)C)cc12 [Example 109] | – | ≥ 6.30 | > 6.00
17 | CNC(=O)c1c(-c2ccc(F)cc2)oc2cc(N3CCC(O)C3)c(OC(C)C)cc12 (centres unmarked) [Example 110] | > 6.00 | ≥ 6.30 | –
18 | CNC(=O)c1c(-c2ccc(F)cc2)oc2cc(N(C)S(C)(=O)=O)c(OC(C)C)cc12 [Example 111, 2-(4-Fluoro-phenyl)-5-isopropoxy-6-(methanesulfonyl-methyl-amino)-benzofuran-3-carboxylic acid methylamide] | > 6.00 | ≥ 6.30 | –
19 | CNC(=O)c1c(-c2ccc(F)cc2)oc2cc(NCc3ccoc3)c(OC(C)C)cc12 [Example 112, 2-(4-Fluoro-phenyl)-6-[(furan-3-ylmethyl)-amino]-5-isopropoxy-benzofuran-3-carboxylic acid methylamide] | > 6.00 | ≥ 6.30 | –
20 | CNC(=O)c1c(-c2ccc(F)cc2)oc2cc(NCC(O)CO)c(OC(C)C)cc12 (centres unmarked) [Example 113, 6-(2,3-Dihydroxy-propylamino)-2-(4-fluoro-phenyl)-5-isopropoxy-benzofuran-3-carboxylic acid methylamide] | > 5.00 | 5.30 to 6.30 | –
21 | CNC(=O)c1c(-c2ccc(F)cc2)oc2cc(NC(C)C)c(OC(C)C)cc12 [Example 114, 2-(4-Fluoro-phenyl)-5-isopropoxy-6-isopropylamino-benzofuran-3-carboxylic acid methylamide] | > 6.00 | ≥ 6.30 | –
22 | CNC(=O)c1c(-c2ccc(F)cc2)oc2cc(NCC3CC3)c(OC(C)C)cc12 [Example 115, 6-(Cyclopropylmethyl-amino)-2-(4-fluoro-phenyl)-5-isopropoxy-benzofuran-3-carboxylic acid methylamide] | > 6.00 | ≥ 6.30 | –
23 | CNC(=O)c1c(-c2ccc(F)cc2)oc2cc(N3CCCC3)c(OC)cc12 [Example 116, 2-(4-Fluoro-phenyl)-5-methoxy-6-pyrrolidin-1-yl-benzofuran-3-carboxylic acid methylamide] | > 6.00 | ≥ 6.30 | –
24 | CNC(=O)c1c(-c2ccc(F)cc2)oc2cc(N3CCOCC3)c(OCc3ccccc3)cc12 [Example 117, 5-Benzyloxy-2-(4-fluoro-phenyl)-6-morpholin-4-yl-benzofuran-3-carboxylic acid methylamide] | > 6.00 | ≥ 6.30 | –
25 | CNC(=O)c1c(-c2ccccc2)oc2ccc(CO)cc12 [Example 118, 5-Hydroxymethyl-2-phenyl-benzofuran-3-carboxylic acid methylamide] | < 4.00 | 4.52 to 5.30 | –
26 | CNC(=O)c1c(-c2ccc(F)cc2)oc2cc(N(C)CCOC)c(OC(C)C)cc12 [Example 119, 2-(4-Fluoro-phenyl)-5-isopropoxy-6-[(2-methoxy-ethyl)-methyl-amino]-benzofuran-3-carboxylic acid methylamide] | > 6.00 | ≥ 6.30 | –
27 | CNC(=O)c1c(-c2ccc(F)cc2)oc2cc(N)c(OCc3ccccc3)cc12 [Example 120, 6-Amino-5-benzyloxy-2-(4-fluoro-phenyl)-benzofuran-3-carboxylic acid methylamide] | > 5.00 | ≥ 6.30 | –
28 | CNC(=O)c1c(-c2occc2C)oc2ccc(OC(C)C)cc12 [Example 121, 5-Isopropoxy-2-(3-methyl-furan-2-yl)-benzofuran-3-carboxylic acid methylamide] | > 4.52 | 5.30 to 6.30 | –
